Measurements from patent publication US6753345B2, “7-hexanolytaxol and methods for preparing the same” (Hauser, Inc., priority 1998, dated 2004).

Assays:
SN12C = test: SRB cytotoxicity screening assay (Renal Cancer); conditions: Homo sapiens, SN12C, 48 h
HL-60(TB) = test: cells; conditions: Homo sapiens, HL-60, 48 h, read-out: Log10 GI50 (converted)
HCT-116 = test: SRB cytotoxicity screening assay (Colon Cancer); conditions: HCT-116 (Colon Cancer); PG=0; 48 hour incubation
KM12 = test: SRB cytotoxicity screening assay (Colon Cancer)
LOX-IMVI [1] = conditions: LOX-IMVI (Melanoma); PG=0; 48 hour incubation
A498 = test: SRB cytotoxicity screening assay (Renal Cancer); conditions: Homo sapiens, A498, 48 h
EKVX = test: SRB cytotoxicity screening assay (Non-Small Cell Lung Cancer); conditions: Homo sapiens, EKVX, 48 h, read-out: Log10 LC50 (converted)
SR = test: SRB cytotoxicity screening assay (Leukemia)
TK-10 = test: SRB cytotoxicity screening assay (Renal Cancer)
LOX-IMVI [2] = test: cells; conditions: Homo sapiens, 48 h, read-out: Log10 GI50 (converted)
OVCAR-6 = test: SRB cytotoxicity screening assay (Ovarian); conditions: 48 h
NCI-H322M = NCI-H322M (Non-Small Cell Lung Cancer); PG=0; 48 hour incubation
COLO 205 = test: SRB cytotoxicity screening assay (Colon Cancer); conditions: Homo sapiens, COLO 205, 48 h, read-out: Log10 GI50 (converted)
[3] = tested on: cell line panel (60 lines, nine disease-related subpanels); test: SRB cytotoxicity screening assay, whole cell line panel (mean values)
UACC-62 = test: SRB cytotoxicity screening assay (Melanoma)
SK-MEL-2 = test: SRB cytotoxicity screening assay (Melanoma); conditions: Homo sapiens, SK-MEL-2, 48 h, read-out: Log10 GI50 (converted)
MOLT-4 = test: SRB cytotoxicity screening assay (Leukemia)
NCI-H522 = test: SRB cytotoxicity screening assay (Non-Small Cell Lung Cancer); conditions: NCI-H522 (Non-Small Cell Lung Cancer); PG=0; 48 hour incubation
HT29 = test: SRB cytotoxicity screening assay (Colon Cancer); conditions: Homo sapiens, HT-29, 48 h, read-out: Log10 LC50 (converted)
RPMI-8226 = test: SRB cytotoxicity screening assay (Leukemia)
UO-31 = test: SRB cytotoxicity screening assay (Renal Cancer); conditions: Homo sapiens, UO-31, 48 h
OVCAR-4 = test: SRB cytotoxicity screening assay (Ovarian)
DU-145 = test: SRB cytotoxicity screening assay (Prostate Cancer)
CCRF-CEM cells = test: G2/M arrest; type: cell-based; conditions: minimum concentration that results in 60% of CCRF-CEM cells to arrest in G2-M
MCF7/ADR-RES = test: SRB cytotoxicity screening assay (Breast Cancer)
MDA-MB-231/ATCC = test: SRB cytotoxicity screening assay (Breast Cancer)
[4] = read-out: Log10 GI50 (converted)
[5] = read-out: Log10 LC50 (converted)

CC(=O)O[C@H]1C(=O)[C@@]2(C)[C@H]([C@H](OC(=O)c3ccccc3)[C@]3(O)C[C@H](OC(=O)[C@H](O)[C@@H](NC(=O)c4ccccc4)c4ccccc4)C(C)=C1C3(C)C)[C@]1(OC(C)=O)CO[C@@H]1C[C@@H]2O [Paclitaxel, paclitaxel, reference compound]
GI50 (SN12C; [4]): 0.295 nM
CC50 (SN12C; [5]): > 100000 nM
GI50 (HL-60(TB)): 0.00269 nM
Log10 TGI (HCT-116): −4.82 molar
GI50 (KM12; Homo sapiens, KM12, 48 h, read-out: Log10 GI50 (converted)): 0.00372 nM
Log10 TGI (KM12; KM12 (Colon Cancer), PG=0, 48 hour incubation): −4.36 molar
Log10 TGI (LOX-IMVI [1]): −4.65 molar
GI50 (A498; [4]): 72.4 nM
CC50 (A498; [5]): 74100 nM
CC50 (EKVX): > 100000 nM
GI50 (SR; Homo sapiens, SR, 48 h, read-out: Log10 GI50 (converted)): 4.57 nM
CC50 (SR; Homo sapiens, SR, 48 h, read-out: Log10 LC50 (converted)): > 100000 nM
Log10 TGI (SR; SR (Leukemia), PG=0, 48 hour incubation): >−4.00 molar
GI50 (TK-10; Homo sapiens, TK-10, 48 h, read-out: Log10 GI50 (converted)): 12.9 nM
CC50 (TK-10; Homo sapiens, TK-10, 48 h, read-out: Log10 LC50 (converted)): > 100000 nM
Log10 TGI (TK-10; TK-10 (Renal Cancer), PG=0, 48 hour incubation): >−4.00 molar
GI50 (LOX-IMVI [2]): 0.00158 nM
GI50 (OVCAR-6; [4]): 0.0178 nM
CC50 (OVCAR-6; [5]): > 100000 nM
Log10 TGI (NCI-H322M): −4.46 molar
GI50 (COLO 205): 0.00851 nM
Log10 TGI, MG_MID ([3]; mean value over the cell line panel): −4.54 molar
GI50 ([3]; read-out: Log10 GI50, MG_MID (converted)): 0.0708 nM
CC50 ([3]; read-out: Log10 LC50, MG_MID (converted)): 87100 nM
GI50 (UACC-62; Homo sapiens, UACC-62, 48 h, read-out: Log10 GI50 (converted)): 0.0347 nM
Log10 TGI (UACC-62; UACC-62 (Melanoma), PG=0, 48 hour incubation): −4.71 molar
GI50 (SK-MEL-2): 0.295 nM
GI50 (MOLT-4; Homo sapiens, MOLT-4, 48 h, read-out: Log10 GI50 (converted)): 0.00851 nM
CC50 (MOLT-4; Homo sapiens, MOLT-4, 48 h, read-out: Log10 LC50 (converted)): > 100000 nM
Log10 TGI (MOLT-4; MOLT-4 (Leukemia), PG=0, 48 hour incubation): >−4.00 molar
Log10 TGI (NCI-H522): −11.20 molar
CC50 (HT29): 33100 nM
CC50 (RPMI-8226; Homo sapiens, RPMI-8226, 48 h, read-out: Log10 LC50 (converted)): > 100000 nM
Log10 TGI (RPMI-8226; RPMI-8226 (Leukemia), PG=0, 48 hour incubation): >−4.00 molar
GI50 (UO-31; [4]): 813 nM
CC50 (UO-31; [5]): > 100000 nM
GI50 (OVCAR-4; Homo sapiens, OVCAR-4, 48 h, read-out: Log10 GI50 (converted)): 1580 nM
Log10 TGI (OVCAR-4; OVCAR-4 (Ovarian), PG=0, 48 hour incubation): −4.19 molar
Log10 TGI (DU-145; DU-145 (Prostate Cancer), PG=0, 48 hour incubation): >−4.00 molar
GI50 (DU-145; Homo sapiens, DU-145, 48 h, read-out: Log10 GI50 (converted)): 0.417 nM
CC50 (DU-145; Homo sapiens, DU-145, 48 h, read-out: Log10 LC50 (converted)): > 100000 nM
G2/M arrest MED (CCRF-CEM cells): 0.025 µg/mL
GI50 (MCF7/ADR-RES; Homo sapiens, MCF7, 48 h, read-out: Log10 GI50 (converted)): 3.31 nM
CC50 (MCF7/ADR-RES; Homo sapiens, MCF7, 48 h, read-out: Log10 LC50 (converted)): > 100000 nM
Log10 TGI (MCF7/ADR-RES; MCF7/ADR-RES (Breast Cancer), PG=0, 48 hour incubation): >−4.00 molar
GI50 (MDA-MB-231/ATCC; Homo sapiens, MDA-MB-231, 48 h, read-out: Log10 GI50 (converted)): 2.88 nM
CC50 (MDA-MB-231/ATCC; Homo sapiens, MDA-MB-231, 48 h, read-out: Log10 LC50 (converted)): 51300 nM
Log10 TGI (MDA-MB-231/ATCC; MDA-MB-231/ATCC (Breast Cancer), PG=0, 48 hour incubation): −4.84 molar
